Where “and” joins values, the source holds several entries; their conditions need not be identical. Identical values can stand only once. Like-named read-outs stand apart in the source and are kept apart here.
Experiments:
[1] = Experimental rotational energy barrier (thermal racemization, chiral HPLC); type: physicochemical; details: 135 °C in xylenes, Eyring equation
Protocol: (aR)-6 and (aS)-6 were readily separable from one another and racemic iso -6 through the use of a polysaccharide-based chiral column (Diacel IA column) fitted to an automated medium-pressure liquid chromatography unit (Biotage Isolera Prime). Racemization was observable after heating a solution of either enantiopure (aR)- or (aS)-6 at 135 °C in xylenes over a few hours, and the rate of enantiomerization was extrapolated using the Eyring equation (ΔG ^‡ = 31.2 ± 0.3 kcal/mol). (aR)- and (aS )-iso-6 were separable in an analogous fashion using a chiral IC polysaccharide column. […] Thus, we can project that the rotational energy barrier is […] 37 kcal/mol. However, a computationally determined rotational barrier for iso -6 was 33.5 kcal/mol, which is roughly 3 kcal/mol more than that calculated for 6. One potential explanation for this notable difference in configurational stability is the greater double bond character of the methyl-bearing C^4–C^5 carbon of iso -6 in comparison to the C^5–C^6 in 6, as this would both shorten and rigidify this steric-bearing bond (see Scheme A/B for details). […] Studies have previously described differences in rotational barriers of DAAC (2) and its analogous isomer that, while less dramatic, are consistent with this trend (ΔG ^‡ = 22.1 vs 23.4 kcal/mol). […]
IV. Experimental Profiling of Dihedral Angles
Rotational Energy Barrier Determination. A small spatula tip (~0.2 mg) of either (aR)-6 (aka, (aR)-MT-MTC) or (aS)-6 (aka, (aS)-MT-MTC) was diluted in 2 mL o-xylenes in a large vial containing a stir bar. The solution was heated to 135 °C open to air (temperature set to 135 °C, but fluxuated between 134 and 138 °C).
~100 µL aliquots were extracted from solution using a syringe fitted with a long disposable needle at various time intervals and diluted into automated sample vials containing 500 µL CH2Cl2 to rapidly cool. These samples were monitored on Agilent with an analytical HPLC IA column, using 0 – 40% iPrOH in Hexanes gradient over 30 minutes at a flow rate of 0.5 mL/min, and a pressure of roughly 5 bar). Samples eluted approximately 20 minutes into run, with (aR)-6 eluting first, followed by (aS)-6. Three separate runs were carried out, two of which monitored racemization of (aS)-6, and one of which monitored racemization of (aR)- […]
Integration of the HPLC traces were used to determine enantiomeric excess by calculating the difference between the two enantiomers and dividing that by the sum of the two enantiomers, and then multiplying that […]
provided a slope (corresponding to kracemization), and dividing this number […] providing kenantiomerization (or kent in equation below), with units inverse seconds. A summary of data follows (Table S5), and representative chromatograms illustrated in section VI.

[2] = test system: RPMI-8226; parameters: method as in NCI-60 database; details: RPMI-8226 ref NCI-60 database, cited from earlier work
[3] = test system: A549/ATCC; parameters: method as in NCI-60 database; details: A549/ATCC ref NCI-60 database, cited from earlier work
[4] = test system: NCI-H226; parameters: method as in NCI-60 database; details: NCI-H226 ref NCI-60 database, cited from earlier work
[5] = test system: HCT-116; parameters: method as in NCI-60 database; details: HCT-116 ref NCI-60 database, cited from earlier work
[6] = test system: SK-MEL-5; parameters: method as in NCI-60 database; details: SK-MEL-5 ref NCI-60 database, cited from earlier work
[7] = test system: OVCAR-5; parameters: method as in NCI-60 database; details: OVCAR-5 ref NCI-60 database, cited from earlier work
[8] = test system: 786-0; parameters: method as in NCI-60 database; details: 786-0 ref NCI-60 database, cited from earlier work
[9] = test system: CAKI-1; parameters: method as in NCI-60 database; details: CAKI-1 ref NCI-60 database, cited from earlier work
[10] = test system: RXF 393; parameters: method as in NCI-60 database; details: RXF 393 ref NCI-60 database, cited from earlier work
[11] = test system: PC-3; parameters: method as in NCI-60 database; details: PC-3 ref NCI-60 database, cited from earlier work
[12] = test system: DMS 273; parameters: method as in NCI-60 database; details: DMS 273 ref NCI-60 database, cited from earlier work
[13] = test system: XF 498; parameters: method as in NCI-60 database; details: XF 498 ref NCI-60 database, cited from earlier work

Q: Which “ΔG‡ of enantiomerization, experimental” value [1] does the source give for `COc1cc(C)c(-c2ccc(OC)c(=O)cc2C)c(OC)c1OC` (single isomer, unassigned) [(aR)-6] here?
A: 31.2 ± 0.3 kcal/mol

Q: Which results are given for `COc1cc2c(c(OC)c1OC)-c1ccc(OC)c(=O)cc1[C@@H](NC(C)=O)CC2` [Colchicine, (−)-Colchicine]?
A: GI50 [2]: < 10 nM; Log10GI50 [2]: < -8 Molar; Log10LC50 [2]: > -4.00 Molar; Log10TGI [2]: > -4.00 Molar; Log10GI50 ([2]; listed as 757/1): < -8.00 Molar; GI50 [3]: 260 nM; Log10GI50 [3]: -6.58 Molar; Log10LC50 [3]: > -4.00 Molar; Log10TGI [3]: > -4.00 Molar; Log10GI50 ([3]; listed as 757/9): -6.57 Molar; GI50 [4]: 30 nM; Log10GI50 [4]: -7.56 Molar; Log10LC50 [4]: > -4.00 Molar; Log10TGI ([4]; listed as 757/1): > -4.00 Molar; Log10GI50 ([4]; listed as 757/9): -7.18 Molar; Log10TGI ([4]; listed as 757/9): -7.35 Molar; GI50 [5]: 30 nM; Log10GI50 [5]: -7.49 Molar; Log10LC50 [5]: > -4.00 Molar; Log10GI50 ([5]; listed as 757/1): -7.41 Molar; Log10TGI ([5]; listed as 757/1): > -4.00 Molar and -4.23 Molar; Log10GI50 ([5]; listed as 757/9): -7.79 Molar; GI50 [6]: < 10 nM; Log10GI50 [6]: < -8 Molar; Log10GI50 ([6]; listed as 757/1): -7.61 Molar; Log10TGI ([6]; listed as 757/9): -7.58 Molar; Log10GI50 ([6]; listed as 757/21): < -8.00 Molar; Log10LC50 ([6]; listed as 757/21): > -4.00 Molar; GI50 [7]: 76 nM; Log10GI50 [7]: -7.12 Molar; Log10LC50 [7]: > -4.00 Molar; Log10GI50 ([7]; listed as 757/1): -4.48 Molar; GI50 [8]: 78 nM; Log10GI50 [8]: -7.11 Molar; Log10LC50 [8]: > -4.00 Molar; Log10TGI [8]: > -4.00 Molar; Log10GI50 ([8]; listed as 757/9): -7.54 Molar and -7.46 Molar; Log10GI50 ([8]; listed as 757/21): -7.24 Molar and -7.34 Molar and -7.11 Molar; Log10LC50 [9]: > -4.00 Molar; Log10GI50 ([9]; listed as 757/1): < -8.00 Molar; Log10TGI ([9]; listed as 757/1): > -4.00 Molar; Log10GI50 ([9]; listed as 757/9): -6.57 Molar; Log10TGI ([9]; listed as 757/9): -6.69 Molar; GI50 [10]: < 10 nM; Log10GI50 [10]: < -8 Molar; Log10LC50 [10]: > -4.00 Molar; Log10GI50 ([10]; listed as 757/1): < -8.00 Molar; Log10TGI ([10]; listed as 757/1): > -4.00 Molar; Log10GI50 ([10]; listed as 757/9): -7.93 Molar; Log10GI50 ([10]; listed as 757/21): -7.83 Molar and -7.85 Molar; GI50 [11]: 24 nM; Log10GI50 [11]: -7.62 Molar; Log10LC50 [11]: > -4.00 Molar; Log10GI50 ([11]; listed as 757/9): -7.65 Molar; Log10TGI ([11]; listed as 757/9): -6.37 Molar; Log10GI50 ([11]; listed as 757/21): -7.62 Molar; Log10TGI ([11]; listed as 757/21): > -4.00 Molar; Log10LC50 [12]: > -4.00 Molar; Log10TGI [12]: > -4.00 Molar; Log10GI50 ([12]; listed as 757/1): -7.51 Molar; Log10GI50 ([12]; listed as 757/21): < -8.00 Molar and -7.87 Molar; Log10LC50 [13]: > -4.00 Molar; Log10TGI ([13]; listed as 757/1): -4.41 Molar

Source: publication PMC12150326 (The Journal of Organic Chemistry, 2025)
